How the values were obtained:
[1] = target: T1, full-length B-Catenin (Uniprot ID P35222) (Homo sapiens, UniProt P35222); assay: Alphascreen binding assay (beta-catenin / biotin-TCF4 10-53)
T1 construct: 65 nM full-length B-Catenin (Uniprot ID P35222)
T1 sequence (P35222 1-781): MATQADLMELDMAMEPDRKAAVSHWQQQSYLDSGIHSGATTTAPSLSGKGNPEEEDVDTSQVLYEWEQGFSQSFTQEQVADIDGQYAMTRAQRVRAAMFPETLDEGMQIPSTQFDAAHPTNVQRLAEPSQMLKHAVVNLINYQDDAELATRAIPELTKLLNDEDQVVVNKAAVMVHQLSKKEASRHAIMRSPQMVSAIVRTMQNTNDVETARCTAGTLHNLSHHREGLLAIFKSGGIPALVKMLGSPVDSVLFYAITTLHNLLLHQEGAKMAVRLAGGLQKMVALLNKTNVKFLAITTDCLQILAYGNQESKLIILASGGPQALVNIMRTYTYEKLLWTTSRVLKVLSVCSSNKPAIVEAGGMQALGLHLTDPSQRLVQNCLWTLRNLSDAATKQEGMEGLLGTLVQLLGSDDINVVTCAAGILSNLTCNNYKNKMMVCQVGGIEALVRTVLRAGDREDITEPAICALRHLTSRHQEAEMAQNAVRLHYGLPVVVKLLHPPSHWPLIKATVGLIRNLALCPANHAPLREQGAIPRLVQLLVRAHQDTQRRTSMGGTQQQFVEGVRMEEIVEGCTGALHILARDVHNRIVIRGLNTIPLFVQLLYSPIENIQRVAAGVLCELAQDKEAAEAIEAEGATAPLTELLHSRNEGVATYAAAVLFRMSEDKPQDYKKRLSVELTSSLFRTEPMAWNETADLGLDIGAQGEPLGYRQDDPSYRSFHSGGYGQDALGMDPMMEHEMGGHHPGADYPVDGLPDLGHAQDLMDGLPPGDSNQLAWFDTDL
Method in brief: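 Final concentrations: 65 nM full-length human β-catenin plus 10 nM biotin-TCF4(10-53) peptide, test peptide 3-fold from 10 uM to 5 nM, preincubated 15 min at 20 °C in Tris pH 8.0/250 mM NaCl buffer. Nickel-chelate AlphaScreen donor/acceptor beads then added for 60 min in the dark; duplicate reads fitted to 1:1 binding model with Hill slope.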

CHI Log D procedure = assay type: physicochemical; settings: for CHI Log D: pH 7.4; for chromatographic logD: pH 7.4, CHI Log D

Row | Compound | EC50 [1] | CHI Log D (CHI Log D procedure) | chromatographic logD (CHI Log D procedure)
1 | CC(=O)N1CCC[C@]12CC=CCCCC1(CCCC=CCCCCCC[C@@](C)(C(=O)N[C@@H](Cc3ccccc3)C(=O)N[C@@H](Cc3c[nH]c4ccccc34)C(=O)N[C@@H](CCC(N)=O)C(N)=O)NC(=O)[C@H](C(C)C)NC(=O)[C@H](Cc3ccccc3)NC(=O)[C@H](C)NC(=O)[C@H](C)NC(=O)[C@H](CCC(=O)O)NC(=O)[C@H](Cc3ccccn3)NC1=O)NC(=O)[C@H](C)NC(=O)[C@H](CC(=O)O)NC2=O (stereo partly drawn) [I-229, Ac-PL3-Asp-Ala-B5-2pyrA-Glu-Ala-Ala-Phe-Val-S8-Phe-Trp-Gln-NH2] | 5.81 µM | 3.044 | –
2 | CC(=O)N1CCC[C@]12CC=CCCCC1(CCCC=CCCCCCC[C@@](C)(C(=O)N[C@@H](Cc3ccccc3)C(=O)N[C@@H](Cc3c[nH]c4ccccc34)C(=O)N[C@@H](CCC(N)=O)C(N)=O)NC(=O)[C@H](C(C)C)NC(=O)[C@H](Cc3ccccc3)NC(=O)[C@H](C)NC(=O)[C@H](C)NC(=O)[C@H](Cc3csc4ccccc34)NC(=O)[C@H](CC(=O)O)NC1=O)NC(=O)[C@H](C)NC(=O)[C@H](CC(=O)O)NC2=O (stereo partly drawn) [I-231, Ac-PL3-Asp-Ala-B5-Asp-BztA-Ala-Ala-Phe-Val-S8-Phe-Trp-Gln-NH2] | 6.53 µM | – | 3.02
3 | CC(=O)N1CCC[C@]12CC=CCCCC1(CCCC=CCCCCCC[C@@](C)(C(=O)N[C@@H](Cc3ccccc3)C(=O)N[C@@H](Cc3c[nH]c4ccccc34)C(=O)N[C@@H](CCC(N)=O)C(N)=O)NC(=O)[C@H](C(C)C)NC(=O)[C@H](Cc3ccccc3)NC(=O)[C@H](C)NC(=O)[C@H](C)NC(=O)[C@H](Cc3ccc4ccccc4c3)NC(=O)[C@H](CC(=O)O)NC1=O)NC(=O)[C@H](C)NC(=O)[C@H](CC(=O)O)NC2=O (stereo partly drawn) [I-232, Ac-PL3-Asp-Ala-B5-Asp-2NapA-Ala-Ala-Phe-Val-S8-Phe-Trp-Gln-NH2] | 7.64 µM | – | 3.04
4 | CC(=O)N1CCC[C@]12CC=CCCCC1(CCCC=CCCCCCC[C@@](C)(C(=O)N[C@@H](Cc3ccccc3)C(=O)N[C@@H](Cc3c[nH]c4ccccc34)C(=O)N[C@@H](CCC(N)=O)C(N)=O)NC(=O)[C@H](C(C)C)NC(=O)[C@H](Cc3ccccc3)NC(=O)[C@H](C)NC(=O)[C@H](C)NC(=O)[C@H](Cc3c[nH]c4ccccc34)NC(=O)[C@H](CC(=O)O)NC1=O)NC(=O)[C@H](C)NC(=O)[C@H](CC(=O)O)NC2=O (stereo partly drawn) [I-233, Ac-PL3-Asp-Ala-B5-Asp-Trp-Ala-Ala-Phe-Val-S8-Phe-Trp-Gln-NH2] | 5.9 µM | – | 2.82
5 | CC(=O)N1CCC[C@]12CC=CCCCC1(CCCC=CCCCCCC[C@@](C)(C(=O)N[C@@H](Cc3ccccc3)C(=O)N[C@@H](Cc3c[nH]c4ccccc34)C(=O)N[C@@H](CCC(N)=O)C(N)=O)NC(=O)[C@H](C(C)C)NC(=O)[C@H](Cc3cccc(C(F)(F)F)c3)NC(=O)[C@H](C)NC(=O)[C@H](C)NC(=O)[C@H](CC(=O)O)NC(=O)[C@H](CC(=O)O)NC1=O)NC(=O)[C@H](C)NC(=O)[C@H](CC(=O)O)NC2=O (stereo partly drawn) [I-236, Ac-PL3-Asp-Ala-B5-Asp-Asp-Ala-Ala-3F3MeF-Val-S8-Phe-Trp-Gln-NH2] | 0.384 µM | 2.067 | –
6 | CC(=O)N1CCC[C@]12CC=CCCCC1(CCCC=CCCCCCC[C@@](C)(C(=O)N[C@@H](Cc3ccccc3)C(=O)N[C@@H](Cc3c[nH]c4ccccc34)C(=O)N[C@@H](CCC(N)=O)C(N)=O)NC(=O)[C@H](C(C)C)NC(=O)[C@H](Cc3cccc(C(F)(F)F)c3)NC(=O)[C@H](C)NC(=O)[C@H](C)NC(=O)[C@H](CC(=O)O)NC(=O)[C@H](CC(=O)O)NC1=O)NC(=O)[C@H](C)NC(=O)[C@H](CC(=O)O)NC2=O (stereo partly drawn) [I-237, Ac-PL3-Asp-Ala-B5-Asp-Asp-Ala-Ala-3F3MeF-Val-S8-Phe-Trp-Gln-NH2] | 0.384 µM | 2.067 | –

Second part, the compound after the results:

Row | EC50 [1] | CHI Log D (CHI Log D procedure) | chromatographic logD (CHI Log D procedure) | Compound
7 | 3.47 µM | 2.074 | – | CC(=O)N1CCC[C@]12CC=CCCCC1(CCCC=CCCCCCC[C@@](C)(C(=O)N[C@@H](Cc3ccccc3)C(=O)N[C@@H](Cc3c[nH]c4ccccc34)C(=O)N[C@@H](CCC(N)=O)C(N)=O)NC(=O)[C@H](C(C)C)NC(=O)[C@H](Cc3ccc(C(F)(F)F)cc3)NC(=O)[C@H](C)NC(=O)[C@H](C)NC(=O)[C@H](CC(=O)O)NC(=O)[C@H](CC(=O)O)NC1=O)NC(=O)[C@H](C)NC(=O)[C@H](CC(=O)O)NC2=O (stereo partly drawn) [I-240, Ac-PL3-Asp-Ala-B5-Asp-Asp-Ala-Ala-4F3MeF-Val-S8-Phe-Trp-Gln-NH2]
8 | 3.47 µM | 2.074 | – | CC(=O)N1CCC[C@]12CC=CCCCC1(CCCC=CCCCCCC[C@@](C)(C(=O)N[C@@H](Cc3ccccc3)C(=O)N[C@@H](Cc3c[nH]c4ccccc34)C(=O)N[C@@H](CCC(N)=O)C(N)=O)NC(=O)[C@H](C(C)C)NC(=O)[C@H](Cc3ccc(C(F)(F)F)cc3)NC(=O)[C@H](C)NC(=O)[C@H](C)NC(=O)[C@H](CC(=O)O)NC(=O)[C@H](CC(=O)O)NC1=O)NC(=O)[C@H](C)NC(=O)[C@H](CC(=O)O)NC2=O (stereo partly drawn) [I-241, Ac-PL3-Asp-Ala-B5-Asp-Asp-Ala-Ala-4F3MeF-Val-S8-Phe-Trp-Gln-NH2]
9 | 4.91 µM | 2.098 | – | CC(=O)N1CCC[C@]12CC=CCCCC1(CCCC=CCCCCCC[C@@](C)(C(=O)N[C@@H](Cc3ccccc3)C(=O)N[C@@H](Cc3c[nH]c4ccccc34)C(=O)N[C@@H](CCC(N)=O)C(N)=O)NC(=O)[C@H](C(C)C)NC(=O)[C@H](Cc3ccc(C(F)(F)F)cc3)NC(=O)[C@H](C)NC(=O)[C@H](C)NC(=O)[C@H](CC(=O)O)NC(=O)[C@H](CC(=O)O)NC1=O)NC(=O)[C@H](C)NC(=O)[C@H](CC(=O)O)NC2=O (stereo partly drawn) [I-242, Ac-PL3-Asp-Ala-B5-Asp-Asp-Ala-Ala-4F3MeF-Val-S8-Phe-Trp-Gln-NH2]
10 | 4.91 µM | 2.098 | – | CC(=O)N1CCC[C@]12CC=CCCCC1(CCCC=CCCCCCC[C@@](C)(C(=O)N[C@@H](Cc3ccccc3)C(=O)N[C@@H](Cc3c[nH]c4ccccc34)C(=O)N[C@@H](CCC(N)=O)C(N)=O)NC(=O)[C@H](C(C)C)NC(=O)[C@H](Cc3ccc(C(F)(F)F)cc3)NC(=O)[C@H](C)NC(=O)[C@H](C)NC(=O)[C@H](CC(=O)O)NC(=O)[C@H](CC(=O)O)NC1=O)NC(=O)[C@H](C)NC(=O)[C@H](CC(=O)O)NC2=O (stereo partly drawn) [I-243, Ac-PL3-Asp-Ala-B5-Asp-Asp-Ala-Ala-4F3MeF-Val-S8-Phe-Trp-Gln-NH2]
11 | 2.96 µM | 3.101 | – | CC(=O)N1CCC[C@]12CC=CCCCC1(CCCC=CCCCCCC[C@@](C)(C(=O)N[C@@H](Cc3ccccc3)C(=O)N[C@@H](Cc3c[nH]c4ccccc34)C(=O)N[C@@H](CCC(N)=O)C(N)=O)NC(=O)[C@H](C(C)C)NC(=O)[C@H](Cc3ccccc3)NC(=O)[C@H](C)NC(=O)[C@H](C)NC(=O)[C@H](Cc3cccc(C(F)(F)F)c3)NC(=O)[C@H](CC(=O)O)NC1=O)NC(=O)[C@H](C)NC(=O)[C@H](CC(=O)O)NC2=O (stereo partly drawn) [I-244, Ac-PL3-Asp-Ala-B5-Asp-3F3MeF-Ala-Ala-Phe-Val-S8-Phe-Trp-Gln-NH2]
12 | 3.97 µM | 3.01 | – | CC(=O)N1CCC[C@]12CC=CCCCC1(CCCC=CCCCCCC[C@@](C)(C(=O)N[C@@H](Cc3ccccc3)C(=O)N[C@@H](Cc3c[nH]c4ccccc34)C(=O)N[C@@H](CCC(N)=O)C(N)=O)NC(=O)[C@H](C(C)C)NC(=O)[C@H](Cc3ccccc3)NC(=O)[C@H](C)NC(=O)[C@H](C)NC(=O)[C@H](Cc3ccc(C(F)(F)F)cc3)NC(=O)[C@H](CC(=O)O)NC1=O)NC(=O)[C@H](C)NC(=O)[C@H](CC(=O)O)NC2=O (stereo partly drawn) [I-246, Ac-PL3-Asp-Ala-B5-Asp-4F3MeF-Ala-Ala-Phe-Val-S8-Phe-Trp-Gln-NH2]
13 | 2.83 µM | 2.263 | – | CC(=O)N1CCC[C@]12CC=CCCCC1(CCCC=CCCCCCC[C@@](C)(C(=O)N[C@@H](Cc3cccc(C(F)(F)F)c3)C(=O)N[C@@H](Cc3c[nH]c4ccccc34)C(=O)N[C@@H](CCC(N)=O)C(N)=O)NC(=O)[C@H](C(C)C)NC(=O)[C@H](Cc3ccccc3)NC(=O)[C@H](C)NC(=O)[C@H](C)NC(=O)[C@H](CC(=O)O)NC(=O)[C@H](CC(=O)O)NC1=O)NC(=O)[C@H](C)NC(=O)[C@H](CC(=O)O)NC2=O (stereo partly drawn) [I-248, Ac-PL3-Asp-Ala-B5-Asp-Asp-Ala-Ala-Phe-Val-S8-3F3MeF-Trp-Gln-NH2]
14 | 2.83 µM | 2.263 | – | CC(=O)N1CCC[C@]12CC=CCCCC1(CCCC=CCCCCCC[C@@](C)(C(=O)N[C@@H](Cc3cccc(C(F)(F)F)c3)C(=O)N[C@@H](Cc3c[nH]c4ccccc34)C(=O)N[C@@H](CCC(N)=O)C(N)=O)NC(=O)[C@H](C(C)C)NC(=O)[C@H](Cc3ccccc3)NC(=O)[C@H](C)NC(=O)[C@H](C)NC(=O)[C@H](CC(=O)O)NC(=O)[C@H](CC(=O)O)NC1=O)NC(=O)[C@H](C)NC(=O)[C@H](CC(=O)O)NC2=O (stereo partly drawn) [I-249, Ac-PL3-Asp-Ala-B5-Asp-Asp-Ala-Ala-Phe-Val-S8-3F3MeF-Trp-Gln-NH2]
